# Measured values reported in patent publication US10871495B2, “Biomarkers of polycystic kidney disease and uses thereof” (Genzyme Corporation, priority 2014, dated 2020).
# What was measured:
# jck mice [1] = test: Immunoblot of marker levels in kidney lysate of jck mice treated with GCS inhibitor; assay type: in vivo, mouse; conditions: jck mice treated continuously for 5 weeks (0.225% in diet), vs control mice, FIG. 3
# Experimental: (§1) C57BL/6J jck/+ mice were maintained for crossing. The cystic jck/jck mice were genotyped as previously described (Smith et al., J. Am. Soc. Nephrol. 17:2821-2831, 2006). Pcy mice were maintained on a CD1 genetic background as previously described (Takahashi et al., J. Am. Soc. Nephrol. 1:980-989, 1991). GCS inhibitor C9 was administered ad libitum to jck and pcy mice by mixing in powdered 5053 diet at 0.225% from 26 to 64 days and 4 to 30 weeks of age, respectively (as described in Natoli et al., Nature Medicine 16:788-792, 2010). Urine samples from the mice were collected in metabolic cages over a 24-hour period and stored at −80° C.
# (§2) Kidney samples were homogenized on ice in radioimmunoprecipitation assay (RIPA) buffer (Boston BioProducts, Ashland, Mass.) containing 1 mM dithiothreitol, 5 mM ethylenediaminetetraacetic acid (EDTA), 2 mM NaF, 1 mM Na3VO4 (all supplied by Sigma-Aldrich, St. Louis, Mo.), Pefabloc SC and Complete protease inhibitor cocktail (both from Roche, Basel, Switzerland). Protein concentration was determined by BCA protein assay (Pierce, Rockford, Ill.). The samples were loaded onto 4-12% NuPage Bis-Tris gels following the manufacturer's protocols (Invitrogen, Grand Island, N.Y.). Electrophoretic transfer of the proteins in the gel onto nitrocellulose was performed in a semi-dry apparatus according to the manufacturer's instructions (Invitrogen). After electrophoretic transfer, the resulting membranes were blocked with 5% non-fat milk in tris-buffered saline (TBS) containing 0.1% Tween-20 and incubated with primary antibodies overnight at 4° C. The primary antibodies were detected with horseradish peroxidase-labeled secondary antibodies at a 1:10,000 dilution (Promega, Fitchburg, Wis.). […] The primary antibodies to the following antigenes were used: PCNA (DAKO, Carpinteria, Calif.), cyclin D1, S6, phospho-S6 (Ser235/236), phospho-AKT (ser473), total ERK, phospho-ERK (Thr202/Tyr204) (Cell Signaling Technology, Danvers, Mass.), cyclin D3, total AKT, caspase-2, RBBP (BD Biosciences, Billerica, Mass.), MEK1 (Upstate Biotechnology, Lake Placid, N.Y.), aquaporin-2 (Millipore, Billerica, Mass.) β-actin, TSG101 (Abcam, Cambridge, Mass.), ALIX (Santa Cruz Biotechnology, Dallas, Tex.), and GAPDH (US Biological, Salem, Mass.).
# (§3) A further set of experiments was performed to determine whether the same markers could be used to determine the efficacy of a treatment for PKD in a patient having PKD. In these experiments, urine samples from jck mice that were treated with GCS inhibitor C9 continuously for 5 weeks were gathered (FIG. 2) and the levels of each biomarker were analyzed in urine exosomes and kidney lysate samples. […] The data in FIG. 3 show, e.g., that the levels of PCNA, cyclin D3, RBBP, MEK, Erk, phosphorylated ERK, Akt, phosphorylated Akt, S6, phosphorylated S6, and caspase-2 are decreased in kidney lysate samples from jck mice treated with a GCS inhibitor as compared to the levels in kidney lysate samples from control mice. The data in FIG. 3 also show, e.g., that the levels of PCNA, cyclin D1, cyclin D3, MEK, and S6 are decreased in urinary exosomes from jck mice treated with a GCS inhibitor as compared to the levels in urinary exosomes from control mice.
# jck mice [2] = test: Immunoblot of marker levels in urinary exosomes of jck mice treated with GCS inhibitor; assay type: in vivo, mouse; conditions: jck mice treated continuously for 5 weeks (0.225% in diet), vs control mice, FIG. 3
# Experimental: as §1
# (§4) Exosomes were isolated from pooled urine samples (animal studies) or mid void urine samples (human samples) by ultracentrifugation at 100,000 g for 2 hours. Following ultracentrifugation, the exosome pellet was resuspended in 2.5× Laemmli Buffer (5×: 15% SDS, 0.575 M sucrose, 0.325 M Tris, pH 6.8, 5% beta-mercapto ethanol, and 0.002% bromophenol blue) for sodium dodecyl sulfate-polyacrylamide gel electrophoresis (SDS-PAGE) and immunoblot analysis.
# as §2
# as §3, with “The data in FIG. 3 also show, e.g., that the levels of PCNA, cyclin D1, cyclin D3, MEK, and S6 are decreased in urinary exosomes from jck mice treated with a GCS inhibitor as compared to the levels in urinary exosomes from control mice.” left out
# pcy mice [3] = test: Immunoblot of marker levels in kidney lysate of pcy mice treated with GCS inhibitor; assay type: in vivo, mouse; conditions: pcy mice treated for thirty weeks (0.225% in diet), vs untreated mice, FIG. 4
# Experimental: as §1, §2
# A further set of experiments was performed to validate the use of the markers described herein for both diagnosing and determining the efficacy of treatment in human patients having PKD. In these experiments, another mouse model of PKD, pcy mice were used. The pcy mouse model is a slowly progressive adult form of PKD characterized by cyst formation and fibrosis. […] In these experiments, pcy mice were left untreated or were treated with GCS inhibitor C9 for thirty weeks, and then the expression levels of the markers described herein were determined in both kidney lysate and urine exosome samples. The data from these experiments show the levels of the markers were decreased in both the kidney lysate samples and the urine exosome samples from pcy mice treated with GCS inhibitor C9 as compared to the corresponding levels in the untreated mice (FIG. 4). […] The data in FIG. 4 also show, for example, that the levels of PCNA, phosphorylated Erk, phosphorylated Akt, and S6 are decreased in urinary exosomes from pcy mice treated with GCS inhibitor C9 as compared to the untreated mice.
# pcy mice [4] = test: Immunoblot of marker levels in urinary exosomes of pcy mice treated with GCS inhibitor; assay type: in vivo, mouse; conditions: pcy mice treated for thirty weeks (0.225% in diet), vs untreated mice, FIG. 4
# Experimental: as §1, §4
# Kidney samples were homogenized on ice in radioimmunoprecipitation assay (RIPA) buffer (Boston BioProducts, Ashland, Mass.) containing 1 mM dithiothreitol, 5 mM ethylenediaminetetraacetic acid (EDTA), 2 mM NaF, 1 mM Na3VO4 (all supplied by Sigma-Aldrich, St. Louis, Mo.), Pefabloc SC and Complete protease inhibitor cocktail (both from Roche, Basel, Switzerland). Protein concentration was determined by BCA protein assay (Pierce, Rockford, Ill.). The samples were loaded onto 4-12% NuPage Bis-Tris gels following the manufacturer's protocols (Invitrogen, Grand Island, N.Y.). Electrophoretic transfer of the proteins in the gel onto nitrocellulose was performed in a semi-dry apparatus according to the manufacturer's instructions (Invitrogen). After electrophoretic transfer, the resulting membranes were blocked with 5% non-fat milk in tris-buffered saline (TBS) containing 0.1% Tween-20 and incubated with primary antibodies overnight at 4° C. The primary antibodies were detected with horseradish peroxidase-labeled secondary antibodies at a 1:10,000 dilution (Promega, Fitchburg, Wis.). […]
# A further set of experiments was performed to validate the use of the markers described herein for both diagnosing and determining the efficacy of treatment in human patients having PKD. […] In these experiments, pcy mice were left untreated or were treated with GCS inhibitor C9 for thirty weeks, and then the expression levels of the markers described herein were determined in both kidney lysate and urine exosome samples. […]
# pcy mice [5] = conditions: Natoli et al., Nature Medicine 16:788-792, 2010; cited from earlier work
smiles,measurement,setting,value
CCCCCCCCC(=O)N[C@H](CN1CCCC1)[C@H](O)c1ccc2c(c1)OCCO2 [GCS inhibitor C9],level of Akt,jck mice [1],decreased
same,level of Erk,jck mice [1],decreased
same,level of MEK,jck mice [1],decreased
same,level of PCNA,jck mice [1],decreased
same,level of RBBP,jck mice [1],decreased
same,level of S6,jck mice [1],decreased
same,level of caspase-2,jck mice [1],decreased
same,level of cyclin D3,jck mice [1],decreased
same,level of phosphorylated Akt,jck mice [1],decreased
same,level of phosphorylated ERK,jck mice [1],decreased
same,level of phosphorylated S6,jck mice [1],decreased
same,level of MEK,jck mice [2],decreased
same,level of PCNA,jck mice [2],decreased
same,level of S6,jck mice [2],decreased
same,level of cyclin D1,jck mice [2],decreased
same,level of cyclin D3,jck mice [2],decreased
same,level of PCNA,pcy mice [3],decreased
same,level of S6,pcy mice [3],decreased
same,level of phosphorylated Akt,pcy mice [3],decreased
same,level of phosphorylated Erk,pcy mice [3],decreased
same,level of phosphorylated S6,pcy mice [3],decreased
same,level of PCNA,pcy mice [4],decreased
same,level of S6,pcy mice [4],decreased
same,level of phosphorylated Akt,pcy mice [4],decreased
same,level of phosphorylated Erk,pcy mice [4],decreased
same,cystogenesis,pcy mice [5],effective inhibition
same,fibrogenesis,pcy mice [5],effective inhibition
